# According to patent JP2008208074A, “ピラジン誘導体を有効成分とする抗がん剤” (Toray Industries Inc, priority 2007, dated 2008):
# Columns and labels:
# [1] = test system: tumour derived from mouse colon cancer cell line Colon26 [マウス結腸癌細胞株であるColon26細胞由来の腫瘍]; assay: Tumour growth suppression in mouse colon cancer model (Example 2); assay type: in vivo; details: sodium salt of Reference Example 72; BALB/c mice, male, Colon26 tumour s.c.; 20 mg/kg i.v. once daily day 0-3; n=7; day 3
# [2] = Body weight and side effects in mouse colon cancer model (Example 2); assay type: in vivo; details: sodium salt of Reference Example 72, 20 mg/kg i.v. once daily day 0-3
compound,measurement,setting,value
"O=C(O)Cc1ccn(-c2cncc(-n3ncc4ccc(NC5CCCC5)cc43)n2)c1 [参考例72, 2-(1-(6-(6-(シクロペンチルアミノ)-1H-インダゾール-1-イル)ピラジン-2-イル)-1H-ピロール-3-イル)酢酸, ナトリウム塩]",suppression of estimated tumour volume compared with control group,[1],29%
same,body weight difference between treated and control group,"[2]; n=7, day 4, result in words",差は認められなかった
same,body weight,"[2]; BALB/c mice with Colon26 tumour, n=7, weighed day 4, control group 22.9±0.5 g",22.7 ± 0.5 g
same,side effects,"[2]; mouse, individual level, concluded from body weight, result in words",副作用を示すことなく
